Measurements published in patent US20260183274A1, “PDK1 REGULATORY COMPOUND AND COMPOSITION CONTAINING THE SAME” (PROVIBIO CO., LTD., priority 2024, published 2026).

Tested on: T cells isolated from mouse spleens
Assay: T cell proliferation inhibition (CFSE flow cytometry, anti-CD3/anti-CD28 stimulation)
Format: cell-based
Settings: mouse spleen T cells, 3 days; for inhibition at 0.01 µM / inhibition at 0.1 µM / inhibition at 1 µM / inhibition at 10 µM / inhibition at 30 µM / inhibition at 50 µM: Mus musculus, T-cell, 72 h, read-out: Proliferation inhibition rate (%)
Procedure: To verify the T cell proliferation inhibitory effect of the compounds according to the present invention, the following experiment was performed based on flow cytometry analysis using carboxyfluorescein diacetate succinimidyl ester (CFSE), a fluorescent dye that binds to intracellular molecules via covalent bonds.
Spleens were extracted from 7-week-old C57BL/6 mice, ground, and then separated into single cells using a strainer (40 μm pore size, SPL). Red blood cells were removed using ACK (Ammonium-Chloride-Potassium) lysis buffer to isolate white blood cells.
Finally, using a MACS Magnetic Stand and LS column, T cells were isolated from the spleen.
The T cells isolated from the spleen were resuspended in 1 mL of free medium (RPMI-1640+200 U/mL penicillin+200 μg/mL streptomycin), and 0.3 μL of CFSE (10 mM) was added. The mixture was incubated at 37° C. for 5 minutes.
Free medium (10 mL) was added to stop the reaction, and the cells were centrifuged to obtain the cell pellet.
RPMI 1640 medium containing 10% FBS, 100 U/mL penicillin, 100 μg/mL streptomycin, and resuspended the cells. The cells were then seeded into a 96-well plate at a density of 2×10^5 cells per well and activated with CD3 and CD28 antibodies (0.5 μg/mL each) to activate T cells.
The compound diluted in DMSO was added at concentrations of 10 nM, 100 nM, 1 μM, 10 μM, 30 μM, and 50 μM, with three wells per concentration, and cultured at 37° C. and 5% CO2 for three days. The cells were then analyzed using a FACS Canto instrument.
The proliferation inhibition rate (%) was calculated using the following formula: […]

Compound | Proliferation inhibition rate (%) (compound 10 nM, listed as PBK-2024-004, 0.01 µM) | Proliferation inhibition rate (%) (compound 100 nM, listed as PBK-2024-004, 0.1 µM) | Proliferation inhibition rate (%) (compound 1 μM, listed as PBK-2024-004, 1 µM) | Proliferation inhibition rate (%) (compound 10 μM, listed as PBK-2024-004, 10 µM) | inhibition at 0.01 µM (compound 10 nM) | inhibition at 0.1 µM (compound 100 nM) | inhibition at 1 µM (compound 1 μM) | inhibition at 10 µM (compound 10 μM) | inhibition at 30 µM (compound 30 μM) | inhibition at 50 µM (compound 50 μM) | Proliferation inhibition rate (%) (compound 10 nM) | Proliferation inhibition rate (%) (compound 100 nM) | Proliferation inhibition rate (%) (compound 1 μM) | Proliferation inhibition rate (%) (compound 10 μM) | Proliferation inhibition rate (%) (compound 30 μM) | Proliferation inhibition rate (%) (compound 50 μM)
Nc1ncccc1C(=O)NCCCCCCCCCCCCN1CCc2ccccc2C1 [Compound 17, 2-Amino-N-(12-(3,4-dihydroisoquinolin-2 (1H)-yl)dodecyl) nicotinamide] | 0.00% | −14.00% | 100.00% | 100.00% |  |  |  |  |  |  |  |  |  |  |  | 
CN1CCN(CCCCCCCCCCCCNC(=O)c2ccnc(Cl)c2Cl)CC1 [Compound 198, 2,3-Dichloro-N-(12-(4-methylpiperazin-1-yl)dodecyl)isonicotinamide] |  |  |  |  | 5.35% | 9.41% | 20.1% | 100% | 100% | 100% |  |  |  |  |  | 
CCOC(=O)C1CCCN(CCCCCCCCCCCCNC(=O)c2cccnc2N)C1 (stereo not shown) [Compound 92, ethyl 1-(12-(2-aminonicotinamido)dodecyl)piperidine-3-carboxylate] |  |  |  |  | -9.65% | 100% | 100% | 100% | 100% | 100% |  |  |  |  |  | 
Cc1ccc(C(=O)NCCCCCCCCCCCCN2CCN(C)CC2)nc1 [Compound 202, 5-Methyl-N-(12-(4-methylpiperazin-1-yl)dodecyl)picolinamide] |  |  |  |  | 4.05% | 13.2% | 19% | 100% | 100% | 100% |  |  |  |  |  | 
CN1CCN(CCCCCCCCCCCCNC(=O)c2ccccc2Oc2ccccc2)CC1 [Compound 214, N-(12-(4-methylpiperazin-1-yl)dodecyl)-2-phenoxybenzamide] |  |  |  |  | 2.32% | 12.2% | 17.4% | 100% | 100% | 100% |  |  |  |  |  | 
N#CCCCCCCCCCCNC(=O)c1ccccc1Br [Compound 77, 2-Bromo-N-(10-cyano-decyl)benzamide] |  |  |  |  | 1.51% | -3.97% | 15.3% | 2.09% | 3.8% | 32.2% |  |  |  |  |  | 
N#CCCCCCCCCCCNC(=O)c1cccnc1N [Compound 79, 2-amino-N-(10-cyano-decyl)-nicotinamide] |  |  |  |  | -2.19% | 1.23% | 7.12% | 11% | 27.9% | 34.7% |  |  |  |  |  | 
CC(C)(C)OC(=O)N[C@@H]1CCCN(CCCCCCCCCCCCNC(=O)c2cccnc2N)C1 [Compound 117, tert-butyl-(R)-(1-(12-(2-aminonicotinamido)dodecyl)piperidin-3-yl) carbamate] |  |  |  |  |  |  |  |  |  |  | −15.79% | 100.00% | 100.00% | 100.00% | 100.00% | 100.00%
CN1CCN(CCCCCCCCCCCCNC(=O)c2cccnc2O)CC1 [Compound 210, 2-Hydroxy-N-(12-(4-methylpiperazin-1-yl)dodecyl)nicotinamide] |  |  |  |  | -4.34% | -3.18% | 2.75% | 42.8% | 100% | 100% |  |  |  |  |  | 
COCCN1CCN(CCCCCCCCCCCCNC(=O)c2cccnc2N)CC1 [Compound 95, 2-amino-N-(12-(4-(2-methoxyethyl)piperazin-1-yl)dodecyl)nicotinamide] |  |  |  |  | 94.4% | 100% | 100% | 100% | 100% | 100% |  |  |  |  |  | 
C=CCN(C)CCCCCCCCCCCCNC(=O)c1cccnc1N [Compound 96, N-(12-(allyl(methyl)amino)dodecyl)-2-aminonicotinamide] |  |  |  |  | -0.58% | 100% | 100% | 100% | 100% | 100% |  |  |  |  |  | 
COC(=O)C1CCN(CCCCCCCCCCCCNC(=O)c2cccnc2N)C1 (stereo not shown) [Compound 116, Methyl-1-(12-(2-aminonicotinamido)dodecyl) pyrrolidine-3-carboxylate] |  |  |  |  |  |  |  |  |  |  | −1.90% | 26.17% | 100.00% | 100.00% | 100.00% | 100.00%
Nc1ncccc1C(=O)NCCCCCCCCCCCCn1ccc2c(Cl)c(I)cnc21 [Compound 109, 2-Amino-N-(12-(4-chloro-5-iodo-1H-pyrrolo[2,3-b]pyridin-1-yl)dodecyl)nicotinamide] |  |  |  |  | 0.15% | 8.48% | 20.9% | 100% | 100% | 100% |  |  |  |  |  | 
CCNCCCCCCCCCCCCNC(=O)c1cccnc1N [Compound 98, 2-amino-N-(12-(ethylamino)dodecyl)nicotinamide] |  |  |  |  | -4.82% | -3.95% | 100% | 100% | 100% | 100% |  |  |  |  |  | 
Nc1ncccc1C(=O)NCCCCCCCCCCCCN1CCN(C=O)CC1 [Compound 97, 2-amino-N-(12-(4-formylpiperazin-1-yl)dodecyl) nicotinamide] |  |  |  |  |  |  |  |  |  |  | 3.51% | 40.64% | 100.00% | 100.00% | 100.00% | 100.00%
CN1CCN(CCCCCCCCCCCCNC(=O)c2cccnc2Cl)CC1 [Compound 118, 2-chloro-N-(12-(4-methylpiperazin-1-yl)dodecyl)nicotinamide] |  |  |  |  | 4.24% | 4.82% | 12.6% | 34.5% | 88.6% | 100% |  |  |  |  |  | 
COC(=O)C1CCN(CCCCCCCCCCCCNC(=O)c2cccnc2N)CC1 [Compound 93, methyl 1-(12-(2-aminonicotinamido)dodecyl)piperidine-4-carboxylate] |  |  |  |  | -12.9% | 100% | 100% | 100% | 100% | 100% |  |  |  |  |  | 
COc1ccc(C(=O)NCCCCCCCCCCCCN2CCN(C)CC2)nc1 [Compound 204, 5-methoxy-N-(12-(4-methylpiperazin-1-yl)dodecyl)picolinamide] |  |  |  |  | -2.6% | -0.14% | 12.3% | 95% | 100% | 100% |  |  |  |  |  | 
CN1CCN(CCCCCCCCCCCCNC(=O)c2ccc(C(F)(F)F)cc2N)CC1 [Compound 213, 2-Amino-N-(12-(4-methylpiperazin-1-yl)dodecyl)-4-(trifluoromethyl)benzamide] |  |  |  |  | -0.14% | 6.37% | 8.54% | 100% | 100% | 100% |  |  |  |  |  | 
